The values that follow come from patent publication US20050266469A1, “Alternatively spliced isoforms of checkpoint kinase 1 (CHK1)” (priority 2004, published 2005).

pIC50: −log10 of the molar value. Like-named read-outs stand apart in the source and are kept apart here.

In assay [1] the target is T1, CHK1sv1 (Homo sapiens, UniProt O14757).
T1 construct: made in house; host or cells: SF9 insect cells (baculovirus, pVL1393 transfer vector)
T1 sequence (O14757 with tags, fused parts or gaps): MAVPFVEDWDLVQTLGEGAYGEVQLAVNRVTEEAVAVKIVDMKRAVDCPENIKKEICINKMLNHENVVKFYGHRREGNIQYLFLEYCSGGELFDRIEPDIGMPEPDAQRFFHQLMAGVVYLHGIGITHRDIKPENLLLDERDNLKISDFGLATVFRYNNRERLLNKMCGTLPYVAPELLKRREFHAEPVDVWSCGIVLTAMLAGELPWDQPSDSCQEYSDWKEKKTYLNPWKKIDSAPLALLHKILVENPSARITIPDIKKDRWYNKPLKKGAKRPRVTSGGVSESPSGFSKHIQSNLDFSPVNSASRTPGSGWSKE
Put plainly: CHK1sv1 kinase assay (Homogenous Time-Resolved Fluorescence, synthetic peptide substrate). In kind it is biochemical. How it is done:
CHK1sv1 activity was assayed in vitro using a synthetic peptide substrate. The phophopeptide product was quantitated using a Homogenous Time-Resolved Fluorescence assay system (Park et al., 1999, Anal. Biochem. 269:94-104). The reaction mixture contained 40 mM HEPES, pH 7.3; 100 mM NaCl; 10 mM MgCl2; 2 mM dithiothreitol; 0.1% BSA; 0.1 mM ATP; 0.5 μM peptide substrate; and 0.1 nM CHK1sv1 enzyme in a final volume of 40 μl. […] The kinase reaction was incubated for 30 minutes at 22° C., and then terminated with 60 μl Stop/Detection Buffer (40 mM HEPES, pH 7.3; 10 mM EDTA; 0.125% Triton X-100; 1.25% BSA; 250 nM PhycoLink Streptavidin-Allophycocyanin (APC) Conjugate (Prozyme, San Leandro, Calif.); and […] Europium-chelate labeled anti-phosphotyrosine antibody (PY20, Perkin Elmer, Boston, Mass.)). The reaction was allowed to equilibrate for 2 hours at 22° C., and relative fluorescent units were read on a Discovery plate reader (Packard Biosciences). ATP Km was determined by varying ATP concentration from 0.003 to 3 mM in the reaction described above and determining the relative enzymatic rates. […] CHK1sv1 Vmax was calculated by determining the amount of phospho-peptide product formed per microgram of CHKsv1 when both ATP and CDC25C peptide substrate are at saturating concentrations.

Assay [2] addresses T2, reference CHK1 (Homo sapiens, UniProt O14757).
T2 sequence (O14757 1-476): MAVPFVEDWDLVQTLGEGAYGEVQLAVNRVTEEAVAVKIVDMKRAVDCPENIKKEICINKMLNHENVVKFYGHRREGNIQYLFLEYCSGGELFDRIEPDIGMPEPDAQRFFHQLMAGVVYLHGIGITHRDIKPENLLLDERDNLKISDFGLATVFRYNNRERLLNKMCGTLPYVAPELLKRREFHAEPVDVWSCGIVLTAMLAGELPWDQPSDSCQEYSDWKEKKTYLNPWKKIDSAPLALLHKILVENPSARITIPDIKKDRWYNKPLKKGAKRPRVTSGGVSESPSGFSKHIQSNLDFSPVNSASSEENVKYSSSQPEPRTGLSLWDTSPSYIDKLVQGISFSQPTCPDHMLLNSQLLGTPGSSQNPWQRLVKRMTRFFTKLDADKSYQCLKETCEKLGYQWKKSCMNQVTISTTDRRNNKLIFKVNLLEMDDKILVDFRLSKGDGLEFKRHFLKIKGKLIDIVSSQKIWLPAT
The settings on record: cited from earlier work.

Where [3] appears, read: read-out: CHK1sv1 inhibition by derivatives of staurosporin, IC50 values, CHK1sv1 enzyme 0.1 nM, 0.1 mM ATP, 0.5 μM peptide substrate, 30 minutes at 22° C.

Regarding `Cn1c2ccccc2c2c3c(c4c5ccccc5n(CCC#N)c4c21)CNC3=O` [Gö6976], the pIC50 was 9.12 in assay [1] (setting [3]) and 8.52 in assay [2] (previously published (Davies et al., 2000), read-out: IC50 value for the reference CHK1 inhibited by Gö6976).

Regarding `COC(=O)[C@@]1(O)C[C@H]2O[C@]1(C)n1c3ccccc3c3c4c(c5c6ccccc6n2c5c31)C(=O)NC4` [K252A], in assay [1], the pIC50 is 7.30.

For the compound `Cn1cc(C2=C(c3cn(CCCN)c4ccccc34)C(=O)NC2=O)c2ccccc21` [RO317549], the pIC50 in assay [1] (setting [3]) was 6.90.

On to `CN(C)C[C@H]1CCn2c(c(C3=C(c4cn(C)c5ccccc45)C(=O)NC3=O)c3ccccc32)C1` [RO-320432], for which the pIC50 in assay [1] (CHK1sv1 enzyme 0.1 nM, 0.1 mM ATP, 0.5 μM peptide substrate, 30 minutes at 22° C.) is 6.41.

As for “CDC25C substrate: peptide derived from the known CHK1 kinase substrate CDC25C, GLYRSPSMPENLNR (SynPep) (listed as Homo sapiens)”, the Km in assay [1] (CDC25C-derived peptide varied from 0.0003 to 1 mM) is 120 µM; in assay [2] (previously described (O'Neill et al., 2002; Jackson et al., 2000), read-out: Km (CDC25C substrate)), 12 µM.
